The subject of data set [1] is CYP1A1 gene expression. The data set is described as follows: CYP1A1 gene expression in upcyte hepatocytes (Fluidigm RT-PCR). Type of data set: cell-based, human. The following applies: 5 µM, 72 h, both cell strains. An excerpt: (§1) Differences between induced and control samples were compared using Welch’s t-test (GraphPad Prism, version 5.04), when the fold-change was considered biologically relevant (1.5-fold increase or decrease in fold-changes) and corrected for multiple testing according to Bonferroni. […] An unpaired t-test assuming unequal variances was used for testing of differences in the expression patterns, when the fold-change was considered biologically relevant (1.5-fold increase or decrease in fold-changes) and corrected using Bonferroni adjustments.

For data set [2], the system named is SLC22A7 gene expression. The data set is described as follows: SLC22A7 gene expression in upcyte hepatocytes (Fluidigm RT-PCR). Type of data set: cell-based, human. Conditions: 5 µM, 72 h, both cell strains. An excerpt:
(§2) Total RNA was isolated from cells using the Direct-zol™ RNA MiniPrep kit (Zymo Research Corp., Irvine, California). cDNA was synthesized using TaqMan Reverse Transcription Reagents (Life technologies, Applera GmbH, Darmstadt, Germany) and the expression of 25 genes representative of phase I and phase II drug metabolism and transport was quantified by Fluidigm’s BioMark HD high-throughput quantitative chip platform (Fluidigm Corporation, San Francisco, USA). For relative gene expression analysis, the delta-delta-Ct (ΔΔCt) method was used: the Ct values of the target mRNA were first normalized to those of the endogenous control glyceraldehyde-3-phosphate dehydrogenase (GAPDH) followed by dividing values of experimental samples by their corresponding DMSO-treated controls to calculate the x-fold changes of mRNA expression.
In HLM and supersome™ incubations the formation rate is given as nmol µg^−1 min^−1 and fmol pmol^−1 min^−1, respectively, and was calculated as the mean ± SD. […] The intrinsic Clearance (Clint) was given as Vmax/Km ratio. […] In induction and inhibition experiments corresponding EC50 and IC50 values were calculated by nonlinear regression. […]
(§3) As control 0.05 % DMSO was used. The basal CYP activity and induction of CYP activity compared to the DMSO control were measured via HPLC-ESI-MS/MS.

Data set [3] has as its system upcyte hepatocytes 653-03. The data set is described as follows: Tam metabolism in upcyte hepatocytes 653-03 (parental), metabolites in culture medium. The data set is classed as in vitro ADME, human. Conditions: 1 µM Tam, 653-03 cells. On the procedure: (§4) The medium was replaced every 2–3 days. […].
(§5) The culture medium was collected after 24, 48, 72, 96 and 144 h followed by metabolite measurements using HPLC-ESI-MS/MS.
(§6) Protein was precipitated by the addition of ACN containing 1% of acetic acid and the corresponding deuterated internal standards to the same volume of the sample followed by centrifugation at 20.000 g for 15 min at RT. […] Analytes were separated on a Zorbax Eclipse Plus C18 column (1.8 µm, 100 × 2.1 mm, Agilent technologies) and detected on a 6460 triple quadrupole mass spectrometer (Agilent technologies) in positive ESI MRM mode. Glucuronides of estrogen-like metabolites were detected separately via MS/MS-measurements in negative ESI MRM mode.
(§7) […]. […] […].

Data set [4] deals with CYP1A2. The data set is described as follows: CYP1A2 activity in upcyte hepatocytes after treatment (probe substrate cocktail). How it is done: (§8) Cells were cultivated in hepatocyte culture medium at 37 °C and 5 °% CO2 in a humidified incubator. Before starting experiments, cells were cultivated in hepatocyte culture medium containing 0.5% (v/v) DMSO (Preculture medium) for 5 days (density of 0.8 × 10^4 cells/cm^2) and were subcultivated in high-performance medium containing 0.1% (v/v) DMSO (Metabolism conditioning medium) for 3–5 days (density of 1.6 × 10^5 cells/cm^2, confluence). The medium was replaced every 2–3 days.
(§9) In HLM and supersome™ incubations the formation rate is given as nmol µg^−1 min^−1 and fmol pmol^−1 min^−1, respectively, and was calculated as the mean ± SD. […] The intrinsic Clearance (Clint) was given as Vmax/Km ratio. […] Activity of CYP enzymes in induction assays is given as the fold-change (mean ± SD) compared to the corresponding DMSO-treated control. […] Gene expression patterns of treated cells are given as fold-change compared to the corresponding DMSO-treated control samples, as described above. […] In induction and inhibition experiments corresponding EC50 and IC50 values were calculated by nonlinear regression. In all experiments a level of probability (p) ≤ 0.05 for statistical testing was considered significant.
as §3

The subject of data set [5] is CYP2B6. The data set is described as follows: CYP2B6 activity in upcyte hepatocytes after treatment (probe substrate cocktail). The following applies: human, probe bupropion (25 µM). How it is done: as §8, §9, §3
For data set [6], the system named is CYP3A4 gene expression. Put plainly: CYP3A4 gene expression in upcyte hepatocytes (Fluidigm RT-PCR). Conditions: 5 µM, 72 h, both cell strains.
From the text: as §2, §9, §3

In data set [7] the test system is CYP3A4. The data set is described as follows: CYP3A4 activity in upcyte hepatocytes after treatment (probe substrate cocktail). The following applies: human, probe atorvastatin (35 µM), EC50 of induction of CYP3A4 activity, upcyte hepatocytes, 72 h, 50 pM to 5 µM. How it is done: as §8, §9, §3
Data set [8] addresses T1, CYP2C8 (Homo sapiens, UniProt P10632).
T1 sequence (P10632 1-490): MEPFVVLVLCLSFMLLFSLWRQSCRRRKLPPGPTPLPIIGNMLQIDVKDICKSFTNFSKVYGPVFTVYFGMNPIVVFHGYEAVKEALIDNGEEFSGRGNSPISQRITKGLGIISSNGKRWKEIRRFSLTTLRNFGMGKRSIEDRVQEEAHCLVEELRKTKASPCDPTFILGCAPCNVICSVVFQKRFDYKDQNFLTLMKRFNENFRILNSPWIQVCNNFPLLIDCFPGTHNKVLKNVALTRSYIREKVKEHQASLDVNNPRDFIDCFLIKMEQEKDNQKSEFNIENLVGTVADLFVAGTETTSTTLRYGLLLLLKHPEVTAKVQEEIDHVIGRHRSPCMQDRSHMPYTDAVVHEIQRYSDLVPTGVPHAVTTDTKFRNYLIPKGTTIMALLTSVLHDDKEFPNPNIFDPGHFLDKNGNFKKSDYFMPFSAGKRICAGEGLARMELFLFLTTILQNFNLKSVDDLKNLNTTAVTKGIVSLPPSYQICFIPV
Put plainly: CYP2C8 activity in upcyte hepatocytes after treatment (probe substrate cocktail). The data set is classed as cell-based. The arrangement: host or cells: upcyte hepatocytes 653-03 and 653-03 #138 (653-03 2D6). Conditions: upcyte hepatocytes, 72 h, 50 pM to 5 µM; read-out: EC50 of induction of CYP2C8 activity. On the procedure:
as §8, §9, §3

Data set [9] deals with estrogen receptor. Also on record: method as in Johnson et al. [1989]; Murphy et al. [1990]. The following applies: in vitro, estrogen-dependent breast cancer cell lines; ref Johnson et al. [1989]; Murphy et al. [1990]; cited from earlier work.
In data set [10] the target is CYP2C9 (Homo sapiens, UniProt P11712). The data set is described as follows: CYP2C9 activity in upcyte hepatocytes after treatment (probe substrate cocktail). Type of data set: cell-based. The arrangement: host or cells: upcyte hepatocytes 653-03 and 653-03 #138 (653-03 2D6). Conditions: upcyte hepatocytes, 72 h, 50 pM to 5 µM; read-out: EC50 of induction of CYP2C9 activity. On the procedure:
as §8, §9, §3

Data set [11] has as its system CYP1A2, 2C19, 2C9, 2B6, 3A4 and 2C8. The data set is described as follows: CYP activity in upcyte hepatocytes after treatment, all tested CYP isoenzymes together. Type of data set: cell-based, human. The following applies: 5 µM, 72 h. How it is done:
as §8, §9

The test system of data set [12] is SLC10A1 gene expression. Put plainly: SLC10A1 gene expression in upcyte hepatocytes (Fluidigm RT-PCR). The following applies: 5 µM, 72 h, both cell strains. Type of data set: cell-based, human.
From the text: as §1

Data set [13] has as its target CYP2C19 (Homo sapiens, UniProt P33261). The data set is described as follows: CYP2C19 activity in upcyte hepatocytes after treatment (probe substrate cocktail). Also on record: host or cells: upcyte hepatocytes 653-03 and 653-03 #138 (653-03 2D6). The data set is classed as cell-based. The following applies: upcyte hepatocytes, 72 h, 50 pM to 5 µM; read-out: EC50 of induction of CYP2C19 activity. On the procedure: as §8, §9, §3

Data set [14] concerns ABCG2 gene expression. Put plainly: ABCG2 gene expression in upcyte hepatocytes (Fluidigm RT-PCR). Type of data set: cell-based, human. The following applies: 5 µM, 72 h, both cell strains.
From the text: as §1

Data set [15] deals with upcyte hepatocytes 653-03 2D6. The data set is described as follows: Tam metabolism in upcyte hepatocytes 653-03 2D6, metabolites in culture medium. The data set is classed as in vitro ADME, human. On the procedure: as §4, §5, §6, §7

Bounds are passed on as bounds.

CYP2C19, sequence (P33261 whole entry): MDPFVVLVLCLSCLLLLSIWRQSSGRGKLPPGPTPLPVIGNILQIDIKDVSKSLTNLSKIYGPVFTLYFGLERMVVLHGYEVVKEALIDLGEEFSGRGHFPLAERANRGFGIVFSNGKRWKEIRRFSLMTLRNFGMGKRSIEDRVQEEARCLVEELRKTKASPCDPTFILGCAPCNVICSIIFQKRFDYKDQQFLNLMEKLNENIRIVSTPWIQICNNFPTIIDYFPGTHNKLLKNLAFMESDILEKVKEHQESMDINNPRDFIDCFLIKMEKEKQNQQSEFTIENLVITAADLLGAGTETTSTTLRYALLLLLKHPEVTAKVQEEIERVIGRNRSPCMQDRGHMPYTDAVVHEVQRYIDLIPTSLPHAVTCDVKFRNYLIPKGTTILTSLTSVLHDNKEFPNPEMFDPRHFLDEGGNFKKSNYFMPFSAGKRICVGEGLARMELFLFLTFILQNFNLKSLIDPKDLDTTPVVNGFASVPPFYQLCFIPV
CYP2C9, sequence (P11712 whole entry): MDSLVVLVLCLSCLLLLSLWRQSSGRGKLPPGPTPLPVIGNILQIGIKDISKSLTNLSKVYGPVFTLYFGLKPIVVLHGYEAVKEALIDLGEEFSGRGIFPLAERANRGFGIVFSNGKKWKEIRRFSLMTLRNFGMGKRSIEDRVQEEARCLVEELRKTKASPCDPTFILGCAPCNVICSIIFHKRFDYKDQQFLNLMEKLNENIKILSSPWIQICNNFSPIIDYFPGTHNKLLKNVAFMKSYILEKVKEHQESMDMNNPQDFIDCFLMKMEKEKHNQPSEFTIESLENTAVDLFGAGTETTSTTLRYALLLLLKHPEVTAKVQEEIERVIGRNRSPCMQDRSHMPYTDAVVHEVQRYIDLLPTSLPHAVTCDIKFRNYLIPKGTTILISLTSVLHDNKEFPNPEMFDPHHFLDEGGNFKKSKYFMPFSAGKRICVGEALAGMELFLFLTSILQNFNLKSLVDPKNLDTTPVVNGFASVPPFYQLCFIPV

`CCC(=C(c1ccc(O)cc1)c1ccc(O)cc1)c1ccccc1` [Tam-Bis, 4-[1-(4-hydroxyphenyl)-2-phenylbut-1-en-1-yl]phenol]: in [1], the “CYP1A1 gene expression, induction vs DMSO control” value is “up to 4.5 fold”. The “SLC22A7 gene expression, fold lower than DMSO control” value in data set [2] is “up to 2.5 fold”. Also, the “concentration in the supernatant” value was 30.6 pM in data set [3] and “up to 87.5 pM” in [15] (1 µM Tam, 653-03 2D6 cells). Besides, the half-maximal effective concentration (EC50) – broadly, the midpoint of the concentration-response curve – at 72 h in data set [4] (human, EC50 of induction of CYP1A2 activity, 50 pM to 5 µM) was above 400 nM; in data set [5], 187 nM; in data set [7], 178 nM. Also, the EC50 in data set [4] (read-out: EC50 of induction of CYP1A2 activity, 72 h, 50 pM to 5 µM) came to 518 nM; in [8], 400 nM; in data set [10], 488 nM; in data set [13], 30.5 nM. Further, the “CYP3A4 gene expression, induction vs DMSO control” value in data set [6] is “up to 4.5 fold”; in data set [6] (listed as tamoxifen bisphenol), “up to 5.6 fold”. Also, in [9], the “agonism regarding estrogen-regulated mRNA expression” value is “full agonists”. The “inhibitory effect on the tested CYP enzymes” value in [11] is reported as “no inhibitory effect”. Moreover, the “SLC10A1 gene expression, downregulation (fold lower)” value in [12] was “up to 2.5 fold”. Also, the “ABCG2 gene expression, induction vs DMSO control” value in data set [14] is on record as “up to 4.5 fold”. For the same compound, the “concentration in the supernatant of 653-03 2D6 cells relative to parental cells” value in data set [15] (cells incubated with 1 µM Tam up to 144 h) is on record as “up to 4 times”.

These data come from publication PMC5866846 (Archives of Toxicology, 2017).
